Results on 1 compound are retold here after patent publication US20160045513A1, “ISOXAZOLE COMPOUND FOR THE TREATMENT OF CANCER” (Novartis AG, priority 2007, published 2016).

Common to all, as to experiment: cell proliferation, tumor derived cell lines
What all share (format): cell-based

For one test, the system named is NCI-H460. Conditions: Homo sapiens, Lung, 72 or 96 hours exposure. The method, then: (§1) Thirty-seven cancer derived cell lines are used (BT474, MDA-MB-361, MDA-MB-453, SKBr3, T47D, MCF7, MDA-MB-231, MDA-MB-468, SK-MEL-5, A375, MALME-3M, SK-MEL-28, WM266.4, RPMI8226, U266, BE, Colo205, HCT116, HT29, MAWI, RKO, U87MG, HN5, RPMI-8226, A549, MV522, NCI-H1299, NCI-H460, 41M, A2780, CHI, NCI-N87, SKOV3, PC3, MO7e, GIST882 and Baf3) to test the effect of 5-(2,4-Dihydroxy-5-isopropyl-phenyl)-4-(4-morpholin-4-ylmethyl-phenyl)-isoxazole-3-carboxylic acid ethylamide. Cell lines are commercially available from American Type Culture Collection (ATCC). These cell lines cover the following 12 cancer or tumor types: breast, melanoma, multiple myeloma (MM), colon, glioblastoma, head & neck, leukemia, lung, ovarian, prostate, stomach and gastrointestinal stromal tumour (GIST). After division and medium change, cells from stock culture are seeded on cell plates and cultured for about 18 hours to allow cell growth and attachment before starting the assay. On the first day of the assay, 5-(2,4-Dihydroxy-5-isopropyl-phenyl)-4-(4-morpholin-4-ylmethyl-phenyl)-isoxazole-3-carboxylic acid ethylamide is added to the medium at various concentrations up to […]. Cells are cultured up to 72 or 96 hours and cell proliferation is determined using commercially available cell proliferation kits.
(§2) The cells were continually exposed to 5-(2,4-Dihydroxy-5-isopropyl-phenyl)-4-(4-morpholin-4-ylmethyl-phenyl)-isoxazole-3-carboxylic acid ethylamide for either 72 or 96 hours and cell growth was determined by commercially available kits based on either SRB, Alamar blue, methylene blue or WST-1 methods.

The next test deals with RPMI-8226. Particulars: Homo sapiens, Leukemia, 72 or 96 hours exposure. How it is done:
as §1, §2

The subject of the next test is T47D. Particulars: Homo sapiens, Breast, 72 or 96 hours exposure. The method, then: as §1, §2
The next test relates to BT474. Particulars: Homo sapiens, BT-474, Breast, 72 or 96 hours exposure. How it is done: as §1, §2
Another test concerns MDA-MB-231. Conditions: Homo sapiens, Breast, 72 or 96 hours exposure. The method, then: as §1, §2

Broadly, the IC50 is the concentration at which inhibition is half-maximal.

With `CCNC(=O)c1noc(-c2cc(C(C)C)c(O)cc2O)c1-c1ccc(CN2CCOCC2)cc1` [AUY922, 5-(2,4-Dihydroxy-5-isopropyl-phenyl)-4-(4-morpholin-4-ylmethyl-phenyl)-isoxazole-3-carboxylic acid ethylamide], the IC50 was found to be 14 nM with NCI-H460; 6.3 nM in the test with RPMI-8226; 2.6 nM in the test with T47D; 2.8 nM in the test with BT474; 7.7 nM in the test with MDA-MB-231.
